These results are taken from US20090270371A1, “QUINOLINE DERIVATIVES USEFUL IN THE TREATMENT OF MGLUR5 RECEPTOR-MEDIATED DISORDERS” (priority 2005, published 2009).

Each structure is given as a SMILES string.

The target of the assay is T1, rat mGluR5 receptors (Rattus norvegicus, UniProt P31424).
T1 construct: rat cerebro-cortical membrane preparation was used; from tissue; host or cells: rat cerebral cortex membranes
T1 sequence (P31424 21-1203): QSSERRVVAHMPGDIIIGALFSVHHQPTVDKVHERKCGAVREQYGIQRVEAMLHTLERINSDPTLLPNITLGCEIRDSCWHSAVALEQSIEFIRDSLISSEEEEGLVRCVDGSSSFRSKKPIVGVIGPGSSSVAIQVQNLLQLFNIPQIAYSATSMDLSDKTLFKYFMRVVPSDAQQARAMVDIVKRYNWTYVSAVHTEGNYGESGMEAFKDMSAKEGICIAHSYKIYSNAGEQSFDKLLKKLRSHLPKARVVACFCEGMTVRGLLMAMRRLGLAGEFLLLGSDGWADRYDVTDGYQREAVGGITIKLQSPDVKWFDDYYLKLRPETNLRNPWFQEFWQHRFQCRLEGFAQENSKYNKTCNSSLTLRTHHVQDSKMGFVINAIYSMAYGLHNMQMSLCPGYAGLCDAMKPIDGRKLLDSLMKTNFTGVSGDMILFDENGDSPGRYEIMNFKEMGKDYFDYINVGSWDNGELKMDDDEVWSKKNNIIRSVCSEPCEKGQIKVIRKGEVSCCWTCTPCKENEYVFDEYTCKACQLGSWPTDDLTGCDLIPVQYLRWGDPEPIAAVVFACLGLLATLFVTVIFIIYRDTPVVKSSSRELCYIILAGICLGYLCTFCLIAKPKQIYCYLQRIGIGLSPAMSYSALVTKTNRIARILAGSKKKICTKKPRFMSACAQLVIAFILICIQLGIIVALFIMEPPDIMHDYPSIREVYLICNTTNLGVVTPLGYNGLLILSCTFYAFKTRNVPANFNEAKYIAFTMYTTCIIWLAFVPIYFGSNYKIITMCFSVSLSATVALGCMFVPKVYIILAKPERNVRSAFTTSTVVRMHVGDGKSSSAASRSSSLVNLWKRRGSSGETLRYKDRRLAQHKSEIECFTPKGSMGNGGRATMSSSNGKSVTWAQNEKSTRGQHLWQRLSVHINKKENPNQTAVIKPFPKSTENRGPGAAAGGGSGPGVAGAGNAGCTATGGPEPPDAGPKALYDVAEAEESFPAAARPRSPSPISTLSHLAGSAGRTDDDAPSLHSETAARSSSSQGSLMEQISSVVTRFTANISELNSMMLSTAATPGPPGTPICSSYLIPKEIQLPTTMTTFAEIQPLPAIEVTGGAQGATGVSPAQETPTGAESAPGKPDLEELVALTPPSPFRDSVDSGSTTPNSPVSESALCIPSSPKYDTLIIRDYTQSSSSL
Put plainly: mGluR5 receptor binding test, rat cerebro-cortical membrane preparation, [3H]-M-MPEP. As to conditions: affinity for rat mGluR5 receptors; [3H]-M-MPEP (2 nM) radioligand. The procedure: The mGluR5 receptor binding was determined according to the modified method of Gasparini et. al. (Bioorg. Med. Chem. Lett., 2000, 12, 407). Based on the high homology between the human and rat mGluR5 receptors, rat cerebro-cortical membrane preparation was used to determine the binding characteristics of the reference compounds and novel compounds to the rat mGluR5. The A18 cell line expressing hmGluR5a (purchased from Euroscreen) was used to determine binding characteristics of the chemical compounds to the human mGluR5a receptor. [^3H]-M-MPEP (2 nM) was used as radioligand. The nonspecific binding was determined in the presence of 10 μM M-MPEP.
For orientation: Ki means the equilibrium dissociation constant of an inhibitor or competing ligand from its target. The molecule `CCOC(=O)N1CCN(c2c(S(=O)(=O)c3ccc(Cl)cc3)cnc3ccccc23)CC1` [Compound 129] yielded a Ki of over 500 nM.

For `CCc1ccc2ncc(S(=O)(=O)c3ccc(C)cc3)c(NCc3ccc(F)cc3)c2c1` [Compound 130], the Ki was over 500 nM.

In turn, `CCOC(=O)N1CCN(c2c(S(=O)(=O)c3ccc(Cl)cc3)cnc3ccc(C)cc23)CC1` [Compound 131] returned a Ki of 200 to 500 nM. As for `CCOC(=O)N1CCN(c2c(S(=O)(=O)c3ccc(C)cc3)cnc3ccc(C)cc23)CC1` [Compound 132], the figure is over 500 nM; as for `CCN(CC)c1c(S(=O)(=O)c2ccc(Cl)cc2)cnc2ccc(F)cc12` [Compound 133], over 500 nM; as for `CCc1ccc2ncc(S(=O)(=O)c3ccc(OC)cc3)c(N3CCCCC3)c2c1` [Compound 134], over 500 nM.

For `O=S(=O)(c1ccccc1)c1cnc2cc3c(cc2c1N1CCCCC1)OCCO3` [Compound 135], the Ki was over 500 nM. The figure for `CC1CCN(c2c(S(=O)(=O)c3ccccc3)cnc3ccc(F)cc23)CC1` [Compound 136] is over 500 nM. As for `CC1CCN(c2c(S(=O)(=O)c3ccc(Cl)cc3)cnc3ccc(F)cc23)CC1` [Compound 137], the figure is under 200 nM; as for `CC1CCN(c2c(S(=O)(=O)c3cc(Cl)cc(Cl)c3)cnc3ccc(F)cc23)CC1` [Compound 138], 200 to 500 nM; as for `CC1CCN(c2c(S(=O)(=O)c3cc(F)cc(F)c3)cnc3ccc(F)cc23)CC1` [Compound 139], over 500 nM. As for `CC1CCN(c2c(S(=O)(=O)c3cccc(C#N)c3)cnc3ccc(F)cc23)CC1` [Compound 140], the figure is under 200 nM; as for `CC1CCN(c2c(S(=O)(=O)c3ccc(F)cc3)cnc3ccc(F)cc23)CC1` [Compound 141], under 200 nM. `COc1ccc(S(=O)(=O)c2cnc3ccc(F)cc3c2N2CCC(C)CC2)cc1` [Compound 142]: the Ki was under 200 nM.

In turn, `COc1ccc(S(=O)(=O)c2cnc3ccc(F)cc3c2N2CCC(C)CC2)cc1OC` [Compound 143] registered a Ki of 200 to 500 nM.

`CC1CCN(c2c(S(=O)(=O)c3cccc(F)c3)cnc3ccc(F)cc23)CC1` [Compound 144] displayed a Ki of 200 to 500 nM. The figure for `COc1cccc(S(=O)(=O)c2cnc3ccc(F)cc3c2N2CCC(C)CC2)c1` [Compound 145] is under 200 nM; for `Cc1ccc(S(=O)(=O)c2cnc3ccc(F)cc3c2N2CCC(C)CC2)cc1C` [Compound 146] it is under 200 nM. As for `COc1ccc(S(=O)(=O)c2cnc3ccc(F)cc3c2N2CCC(C)CC2)cc1Cl` [Compound 147], the figure is under 200 nM. In the case of `CC1CCN(c2c(S(=O)(=O)c3cccc(Cl)c3)cnc3ccc(F)cc23)CC1` [Compound 148], the Ki is under 200 nM.

The molecule `CC1CCN(c2c(S(=O)(=O)c3ccc(Cl)c(Cl)c3)cnc3ccc(F)cc23)CC1` [Compound 149] came in with an inhibition constant (Ki) of under 200 nM. The figure for `CC1CCN(c2c(S(=O)(=O)c3ccc(C#N)cc3)cnc3ccc(F)cc23)CC1` [Compound 150] is 200 to 500 nM; for `Cc1cc(C)cc(S(=O)(=O)c2cnc3ccc(F)cc3c2N2CCC(C)CC2)c1` [Compound 151] it is under 200 nM; for `CC1CCN(c2c(S(=O)(=O)c3ccc(F)c(F)c3)cnc3ccc(F)cc23)CC1` [Compound 152] it is under 200 nM. The figure for `Cc1ccc2ncc(S(=O)(=O)c3cc(Cl)cc(Cl)c3)c(N3CCC(C)CC3)c2c1` [Compound 153] is 200 to 500 nM. The figure for `Cc1ccc2ncc(S(=O)(=O)c3cc(F)cc(F)c3)c(N3CCC(C)CC3)c2c1` [Compound 154] is 200 to 500 nM; for `Cc1ccc2ncc(S(=O)(=O)c3cccc(C#N)c3)c(N3CCC(C)CC3)c2c1` [Compound 155] it is over 500 nM; for `Cc1ccc2ncc(S(=O)(=O)c3ccc(F)cc3)c(N3CCC(C)CC3)c2c1` [Compound 156] it is under 200 nM.

In turn, `COc1ccc(S(=O)(=O)c2cnc3ccc(C)cc3c2N2CCC(C)CC2)cc1` [Compound 157] yielded a Ki of 200 to 500 nM.

`Cc1ccc2ncc(S(=O)(=O)c3ccc(Cl)cc3)c(N3CCC(C)CC3)c2c1` [Compound 158] yielded a Ki of 200 to 500 nM. As for `Cc1ccc2ncc(S(=O)(=O)c3cccc(F)c3)c(N3CCC(C)CC3)c2c1` [Compound 159], the figure is under 200 nM; as for `COc1cccc(S(=O)(=O)c2cnc3ccc(C)cc3c2N2CCC(C)CC2)c1` [Compound 160], under 200 nM. `Cc1ccc2ncc(S(=O)(=O)c3ccc(C)c(C)c3)c(N3CCC(C)CC3)c2c1` [Compound 161]: the Ki was under 200 nM. `COc1ccc(S(=O)(=O)c2cnc3ccc(C)cc3c2N2CCC(C)CC2)cc1Cl` [Compound 162] gave a Ki of under 200 nM.

`Cc1ccc2ncc(S(=O)(=O)c3cccc(Cl)c3)c(N3CCC(C)CC3)c2c1` [Compound 163] had a Ki of under 200 nM. The figure for `Cc1ccc2ncc(S(=O)(=O)c3ccc(Cl)c(Cl)c3)c(N3CCC(C)CC3)c2c1` [Compound 164] is under 200 nM; for `Cc1ccc2ncc(S(=O)(=O)c3ccc(C)c(F)c3)c(N3CCC(C)CC3)c2c1` [Compound 165] it is under 200 nM. The figure for `Cc1ccc2ncc(S(=O)(=O)c3ccc(C#N)cc3)c(N3CCC(C)CC3)c2c1` [Compound 166] is 200 to 500 nM; for `Cc1ccc2ncc(S(=O)(=O)c3ccc(C)c(Cl)c3)c(N3CCC(C)CC3)c2c1` [Compound 167] it is under 200 nM; for `Cc1cc(C)cc(S(=O)(=O)c2cnc3ccc(C)cc3c2N2CCC(C)CC2)c1` [Compound 168] it is 200 to 500 nM. For the molecule `Cc1ccc2ncc(S(=O)(=O)c3ccc(F)c(Cl)c3)c(N3CCC(C)CC3)c2c1` [Compound 169], the Ki is under 200 nM. In turn, `CC1CCN(c2c(S(=O)(=O)c3cc(F)cc(F)c3)cnc3cc(F)ccc23)CC1` [Compound 170] gave a Ki of 200 to 500 nM. The figure for `Cc1ccc(S(=O)(=O)c2cnc3cc(F)ccc3c2N2CCC(C)CC2)cc1` [Compound 171] is under 200 nM. The figure for `CC1CCN(c2c(S(=O)(=O)c3ccc(F)cc3)cnc3cc(F)ccc23)CC1` [Compound 172] is 200 to 500 nM; for `CC1CCN(c2c(S(=O)(=O)c3ccccc3)cnc3cc(F)ccc23)CC1` [Compound 173] it is under 200 nM. As for `CC1CCN(c2c(S(=O)(=O)c3ccc(Cl)cc3)cnc3cc(F)ccc23)CC1` [Compound 174], the figure is under 200 nM; as for `COc1cccc(S(=O)(=O)c2cnc3cc(F)ccc3c2N2CCC(C)CC2)c1` [Compound 175], under 200 nM.

Consider `CC1CCN(c2c(S(=O)(=O)c3ccc(Cl)c(Cl)c3)cnc3cc(F)ccc23)CC1` [Compound 176], for which the Ki was under 200 nM. As for `CC1CCN(c2c(S(=O)(=O)c3cc(Cl)cc(Cl)c3)cnc3cc(F)ccc23)CC1` [Compound 177], the figure is under 200 nM; as for `Cc1ccc(S(=O)(=O)c2cnc3cc(F)ccc3c2N2CCC(C)CC2)cc1F` [Compound 178], under 200 nM; as for `CC1CCN(c2c(S(=O)(=O)c3cccc(C#N)c3)cnc3cc(F)ccc23)CC1` [Compound 179], under 200 nM.

Regarding `CC1CCN(c2c(S(=O)(=O)c3ccc(C#N)cc3)cnc3cc(F)ccc23)CC1` [Compound 180], the inhibition constant (Ki) was under 200 nM. The figure for `Cc1ccc(S(=O)(=O)c2cnc3cc(F)ccc3c2N2CCC(C)CC2)cc1Cl` [Compound 181] is under 200 nM; for `COc1ccc(S(=O)(=O)c2cnc3cc(F)ccc3c2N2CCC(C)CC2)cc1OC` [Compound 182] it is under 200 nM; for `Cc1ccc(S(=O)(=O)c2cnc3cc(F)ccc3c2N2CCC(C)CC2)cc1C` [Compound 183] it is under 200 nM. For the molecule `Cc1cc(C)cc(S(=O)(=O)c2cnc3cc(F)ccc3c2N2CCC(C)CC2)c1` [Compound 184], the Ki fell in the range of 200 to 500 nM. As for `COc1ccc(S(=O)(=O)c2cnc3cc(F)ccc3c2N2CCC(C)CC2)cc1` [Compound 185], the figure is under 200 nM; as for `CC1CCN(c2c(S(=O)(=O)c3ccc(F)c(F)c3)cnc3cc(F)ccc23)CC1` [Compound 186], under 200 nM; as for `CC1CCN(c2c(S(=O)(=O)c3ccc(F)c(Cl)c3)cnc3cc(F)ccc23)CC1` [Compound 187], under 200 nM. As for `CC1CCN(c2c(S(=O)(=O)c3cc(Cl)cc(Cl)c3)cnc3cc(Cl)ccc23)CC1` [Compound 188], the figure is under 200 nM.

Consider `CC1CCN(c2c(S(=O)(=O)c3cc(F)cc(F)c3)cnc3cc(Cl)ccc23)CC1` [Compound 189], for which the Ki is under 200 nM.

`CC1CCN(c2c(S(=O)(=O)c3cccc(C#N)c3)cnc3cc(Cl)ccc23)CC1` [Compound 190] gave a Ki of under 200 nM. As for `Cc1ccc(S(=O)(=O)c2cnc3cc(Cl)ccc3c2N2CCC(C)CC2)cc1` [Compound 191], the figure is under 200 nM. The figure for `CC1CCN(c2c(S(=O)(=O)c3ccc(F)cc3)cnc3cc(Cl)ccc23)CC1` [Compound 192] is under 200 nM; for `COc1ccc(S(=O)(=O)c2cnc3cc(Cl)ccc3c2N2CCC(C)CC2)cc1` [Compound 193] it is 200 to 500 nM. The molecule `CC1CCN(c2c(S(=O)(=O)c3ccccc3)cnc3cc(Cl)ccc23)CC1` [Compound 194] returned a Ki of under 200 nM. As for `CC1CCN(c2c(S(=O)(=O)c3ccc(Cl)cc3)cnc3cc(Cl)ccc23)CC1` [Compound 195, 7-Chloro-3-(4-chloro-benzenesulfonyl)-4-(4-methyl-piperidin-1-yl)-quinoline], the figure is under 200 nM. As for `COc1ccc(S(=O)(=O)c2cnc3cc(Cl)ccc3c2N2CCC(C)CC2)cc1OC` [Compound 196], the figure is under 200 nM; as for `CC1CCN(c2c(S(=O)(=O)c3cccc(F)c3)cnc3cc(Cl)ccc23)CC1` [Compound 197], under 200 nM.

As for `COc1cccc(S(=O)(=O)c2cnc3cc(Cl)ccc3c2N2CCC(C)CC2)c1` [Compound 198], the Ki is under 200 nM.
